Reference: patent US11793849B2, “Method of Chinese herbal medicine extract used for treating multiple diseases caused by drug resistant bacteria infection” (priority 2016, dated 2023)
≈ marks a conversion by molar mass, not a printed value. Read-outs that look alike come from different tables or passages of the source.

How the values were obtained:
MDRPA [1] = experiment: MIC determination, microdilution broth method;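 also: broth microdilution per NCCLS recommendations, testing Pithecellobium clypearia water or ethanol extracts against multidrug-resistant Pseudomonas aeruginosa, with MIC50 and MIC90 derived statistically from individual MICs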
MDRPA [2] = experiment: Checkerboard assay (combined-use MIC, FIC); format: cell-based, Pseudomonas aeruginosa; details: 20 MDRPAs; antibiotic with 10% ethanol extract
Experimental: Test methods of the sensibilization effects of the test product to similar antibiotics: it is operated by referring to a checkerboard assay recommended by NCCLS.
The checkerboard assay is performed in a 96-pore sterile culture plate.
Calculation of a Fractional Inhibitory Concentration (FIC): FIC=S20b combined-use MIC/S20b single-use MIC+antibiotic combined-use MIC/antibiotic single-use MIC. By calculating the FIC, the combined antibacterial interaction between the EA and the antibiotic is evaluated, with synergistic effect for FIC≤0.5, additive effect for 0.5<FIC≤1, indifferent effect for 1<FIC≤2 and antagonistic effect for FIC>2. According to a sterile growth pore, the optimum concentration ratio between the EA and the antibiotic is founded out. At last, the effect of the EA to strengthen the efficacy of the antibiotic is evaluated.

[3] = 20 MDRPAs, EA = 60% ethanol extract
[4] = 20 MDRPAs, EA = 95% ethanol extract
[5] = MDRPAs P1-P20, single use, EA=P. clypearia 10% ethanol extract
[6] = MDRPAs P1-P20, single use, EA=P. clypearia water extract
[7] = single use, 20 MDRPAs, section of the 10% ethanol extract
[8] = single use, 20 MDRPAs, section of the 60% ethanol extract
[9] = single use, 20 MDRPAs, section of the 95% ethanol extract

- MIC50 (MDRPA [1]; [3]): 64 µg/mL (≈ 99.1 µM)
- MIC90 (MDRPA [1]; [3]): 512 µg/mL (≈ 793 µM)
- MIC Range (MDRPA [1]; [3]): 8 to 512 µg/mL
- MIC50 (MDRPA [1]; [4]): 64 µg/mL (≈ 99.1 µM)
- MIC90 (MDRPA [1]; [4]): 512 µg/mL (≈ 793 µM)
- MIC Range (MDRPA [1]; [4]): 8 to 512 µg/mL
- MIC50 (MDRPA [1]; [5]): 64 µg/mL (≈ 99.1 µM)
- MIC90 (MDRPA [1]; [5]): 512 µg/mL (≈ 793 µM)
- MIC Range (MDRPA [1]; [5]): 8 to 512 µg/mL
- MIC50 (MDRPA [1]; [6]): 64 µg/mL (≈ 99.1 µM)
- MIC90 (MDRPA [1]; [6]): 512 µg/mL (≈ 793 µM)
- MIC Range (MDRPA [1]; [6]): 8 to 512 µg/mL
- MIC50 (MDRPA [1]; Pseudomonas aeruginosa): 64 µg/mL (≈ 99.1 µM)
- MIC90 (MDRPA [1]; Pseudomonas aeruginosa): 512 µg/mL (≈ 793 µM)
- MIC (MDRPA [1]; Pseudomonas aeruginosa, read-out: MIC (single use), strain P1, EA=P. clypearia 10% ethanol extract): 128 µg/mL (≈ 198 µM)
- MIC (MDRPA [1]; Pseudomonas aeruginosa, read-out: MIC (single use), strain P1, EA=P. clypearia water extract): 128 µg/mL (≈ 198 µM)
- MIC (MDRPA [1]; Pseudomonas aeruginosa, read-out: MIC (single use), strain P2, EA=P. clypearia 10% ethanol extract): 256 µg/mL (≈ 396 µM)
- MIC (MDRPA [1]; Pseudomonas aeruginosa, read-out: MIC (single use), strain P2, EA=P. clypearia water extract): 256 µg/mL (≈ 396 µM)
- MIC (MDRPA [1]; Pseudomonas aeruginosa, read-out: MIC (single use), strain P3, EA=P. clypearia 10% ethanol extract): 16 µg/mL (≈ 24.8 µM)
- MIC (MDRPA [1]; Pseudomonas aeruginosa, read-out: MIC (single use), strain P3, EA=P. clypearia water extract): 16 µg/mL (≈ 24.8 µM)
- MIC (MDRPA [1]; Pseudomonas aeruginosa, read-out: MIC (single use), strain P4, EA=P. clypearia 10% ethanol extract): 8 µg/mL (≈ 12.4 µM)
- MIC (MDRPA [1]; Pseudomonas aeruginosa, read-out: MIC (single use), strain P4, EA=P. clypearia water extract): 8 µg/mL (≈ 12.4 µM)
- MIC (MDRPA [1]; Pseudomonas aeruginosa, read-out: MIC (single use), strain P5, EA=P. clypearia 10% ethanol extract): 512 µg/mL (≈ 793 µM)
- MIC (MDRPA [1]; Pseudomonas aeruginosa, read-out: MIC (single use), strain P5, EA=P. clypearia water extract): 512 µg/mL (≈ 793 µM)
- MIC (MDRPA [1]; Pseudomonas aeruginosa, read-out: MIC (single use), strain P6, EA=P. clypearia 10% ethanol extract): 512 µg/mL (≈ 793 µM)
- MIC (MDRPA [1]; Pseudomonas aeruginosa, read-out: MIC (single use), strain P6, EA=P. clypearia water extract): 512 µg/mL (≈ 793 µM)
- MIC (MDRPA [1]; Pseudomonas aeruginosa, read-out: MIC (single use), strain P7, EA=P. clypearia 10% ethanol extract): 512 µg/mL (≈ 793 µM)
- MIC (MDRPA [1]; Pseudomonas aeruginosa, read-out: MIC (single use), strain P7, EA=P. clypearia water extract): 512 µg/mL (≈ 793 µM)
- MIC (MDRPA [1]; Pseudomonas aeruginosa, read-out: MIC (single use), strain P8, EA=P. clypearia 10% ethanol extract): 16 µg/mL (≈ 24.8 µM)
- MIC (MDRPA [1]; Pseudomonas aeruginosa, read-out: MIC (single use), strain P8, EA=P. clypearia water extract): 16 µg/mL (≈ 24.8 µM)
- MIC (MDRPA [1]; Pseudomonas aeruginosa, read-out: MIC (single use), strain P9, EA=P. clypearia 10% ethanol extract): 64 µg/mL (≈ 99.1 µM)
- MIC (MDRPA [1]; Pseudomonas aeruginosa, read-out: MIC (single use), strain P9, EA=P. clypearia water extract): 64 µg/mL (≈ 99.1 µM)
- MIC (MDRPA [1]; Pseudomonas aeruginosa, read-out: MIC (single use), strain P10, EA=P. clypearia 10% ethanol extract): 8 µg/mL (≈ 12.4 µM)
- MIC (MDRPA [1]; Pseudomonas aeruginosa, read-out: MIC (single use), strain P10, EA=P. clypearia water extract): 8 µg/mL (≈ 12.4 µM)
- MIC (MDRPA [1]; Pseudomonas aeruginosa, read-out: MIC (single use), strain P11, EA=P. clypearia 10% ethanol extract): 8 µg/mL (≈ 12.4 µM)
- MIC (MDRPA [1]; Pseudomonas aeruginosa, read-out: MIC (single use), strain P11, EA=P. clypearia water extract): 8 µg/mL (≈ 12.4 µM)
- MIC (MDRPA [1]; Pseudomonas aeruginosa, read-out: MIC (single use), strain P12, EA=P. clypearia 10% ethanol extract): 512 µg/mL (≈ 793 µM)
- MIC (MDRPA [1]; Pseudomonas aeruginosa, read-out: MIC (single use), strain P12, EA=P. clypearia water extract): 512 µg/mL (≈ 793 µM)
- MIC (MDRPA [1]; Pseudomonas aeruginosa, read-out: MIC (single use), strain P13, EA=P. clypearia 10% ethanol extract): 256 µg/mL (≈ 396 µM)
- MIC (MDRPA [1]; Pseudomonas aeruginosa, read-out: MIC (single use), strain P13, EA=P. clypearia water extract): 256 µg/mL (≈ 396 µM)
- MIC (MDRPA [1]; Pseudomonas aeruginosa, read-out: MIC (single use), strain P14, EA=P. clypearia 10% ethanol extract): 8 µg/mL (≈ 12.4 µM)
- MIC (MDRPA [1]; Pseudomonas aeruginosa, read-out: MIC (single use), strain P14, EA=P. clypearia water extract): 8 µg/mL (≈ 12.4 µM)
- MIC (MDRPA [1]; Pseudomonas aeruginosa, read-out: MIC (single use), strain P15, EA=P. clypearia 10% ethanol extract): 64 µg/mL (≈ 99.1 µM)
- MIC (MDRPA [1]; Pseudomonas aeruginosa, read-out: MIC (single use), strain P15, EA=P. clypearia water extract): 64 µg/mL (≈ 99.1 µM)
- MIC (MDRPA [1]; Pseudomonas aeruginosa, read-out: MIC (single use), strain P16, EA=P. clypearia 10% ethanol extract): > 512 µg/mL
- MIC (MDRPA [1]; Pseudomonas aeruginosa, read-out: MIC (single use), strain P16, EA=P. clypearia water extract): > 512 µg/mL
- MIC (MDRPA [1]; Pseudomonas aeruginosa, read-out: MIC (single use), strain P17, EA=P. clypearia 10% ethanol extract): 16 µg/mL (≈ 24.8 µM)
- MIC (MDRPA [1]; Pseudomonas aeruginosa, read-out: MIC (single use), strain P17, EA=P. clypearia water extract): 16 µg/mL (≈ 24.8 µM)
- MIC (MDRPA [1]; Pseudomonas aeruginosa, read-out: MIC (single use), strain P18, EA=P. clypearia 10% ethanol extract): 256 µg/mL (≈ 396 µM)
- MIC (MDRPA [1]; Pseudomonas aeruginosa, read-out: MIC (single use), strain P18, EA=P. clypearia water extract): 256 µg/mL (≈ 396 µM)
- MIC (MDRPA [1]; Pseudomonas aeruginosa, read-out: MIC (single use), strain P19, EA=P. clypearia 10% ethanol extract): 64 µg/mL (≈ 99.1 µM)
- MIC (MDRPA [1]; Pseudomonas aeruginosa, read-out: MIC (single use), strain P19, EA=P. clypearia water extract): 64 µg/mL (≈ 99.1 µM)
- MIC (MDRPA [1]; Pseudomonas aeruginosa, read-out: MIC (single use), strain P20, EA=P. clypearia 10% ethanol extract): > 512 µg/mL
- MIC (MDRPA [1]; Pseudomonas aeruginosa, read-out: MIC (single use), strain P20, EA=P. clypearia water extract): > 512 µg/mL
- MIC50 (MDRPA [1]; [7]): 64 µg/mL (≈ 99.1 µM)
- MIC90 (MDRPA [1]; [7]): 512 µg/mL (≈ 793 µM)
- MIC50 (MDRPA [1]; [8]): 64 µg/mL (≈ 99.1 µM)
- MIC90 (MDRPA [1]; [8]): 512 µg/mL (≈ 793 µM)
- MIC50 (MDRPA [1]; [9]): 64 µg/mL (≈ 99.1 µM)
- MIC90 (MDRPA [1]; [9]): 512 µg/mL (≈ 793 µM)
- MIC (single use) (MDRPA [1]; strain P16, EA=P. clypearia 10% ethanol extract): 1024 µg/mL (≈ 1590 µM)
- MIC (single use) (MDRPA [1]; strain P16, EA=P. clypearia water extract): 1024 µg/mL (≈ 1590 µM)
- MIC (single use) (MDRPA [1]; strain P20, EA=P. clypearia 10% ethanol extract): 1024 µg/mL (≈ 1590 µM)
- MIC (single use) (MDRPA [1]; strain P20, EA=P. clypearia water extract): 1024 µg/mL (≈ 1590 µM)
- MIC50 of the antibiotic after combined use (MDRPA [2]): 4 µg/mL
SMILES: CCN1CCN(C(=O)N[C@@H](C(=O)N[C@@H]2C(=O)N3C(C(=O)O)=C(CSc4nnnn4C)CS[C@H]23)c2ccc(O)cc2)C(=O)C1=O [CFP, Cefoperazone]
- FIC, all strains (MDRPA [2]): ≤ 2
